Measured values taken from patent publication US20050170485A1, “Culture having phenol oxidase-like activity” (priority 2002, published 2005).

How the values were obtained:
Type in all cases: biochemical
[1] = biological target: T1, bilirubin oxidase from a strain belonging to the genus Myrothecium (Albifimbria verrucaria, UniProt Q12737); assay: Decolorization / degradation / polymerization of pigments and lignin by bilirubin oxidase (comparison); settings: reaction pH 8.0; without sign = degradation or decolorization, minus = polymerization activity
T1 sequence (Q12737 39-572): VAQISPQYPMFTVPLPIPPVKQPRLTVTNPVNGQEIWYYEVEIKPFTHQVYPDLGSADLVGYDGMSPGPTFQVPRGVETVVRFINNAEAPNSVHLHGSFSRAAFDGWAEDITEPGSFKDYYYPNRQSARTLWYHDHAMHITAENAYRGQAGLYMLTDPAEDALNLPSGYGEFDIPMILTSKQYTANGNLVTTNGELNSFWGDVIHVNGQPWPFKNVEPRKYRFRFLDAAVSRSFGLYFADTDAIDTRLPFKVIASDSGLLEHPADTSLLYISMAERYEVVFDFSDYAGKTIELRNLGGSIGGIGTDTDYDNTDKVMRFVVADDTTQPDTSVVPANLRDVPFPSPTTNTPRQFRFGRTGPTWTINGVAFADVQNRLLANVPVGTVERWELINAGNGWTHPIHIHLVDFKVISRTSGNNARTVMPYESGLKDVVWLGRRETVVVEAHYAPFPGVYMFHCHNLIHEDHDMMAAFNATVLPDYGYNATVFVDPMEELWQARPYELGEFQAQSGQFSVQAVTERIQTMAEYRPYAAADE
Protocol: (§1) Concretely, 950 μl of 105.3 mM sodium phosphate buffer (pH 7.0) containing a substrate adjusted to have a final concentration as shown in Table 2 was pre-incubated at 25° C. for 5 minutes. Next, 50 μl of the culture solution was added to the resulting product, and thereafter, the mixture was reacted in a cuvette. The absorbance for each substrate was determined at a measuring wavelength with a spectrophotometer (manufactured by Shimadzu Corporation, trade name: UV-2450). For the comparison, the examination was also made for bilirubin oxidase from a strain belonging to the genus Myrothecium in the same manner by replacing the above-mentioned buffer with 105.3 mM Tris-HCl buffer (pH 8.0).
(§2) Here, 1 U (unit) of the activity was defined as an amount for increasing the absorbance by 1 per one minute. In Table 3, a specific activity shown without a sign indicates degradation activity or decolorization activity, and a specific activity shown with—(minus) indicates polymerization activity.

[2] = system: culture of Flammulina velutipes strain IFO 30601; assay: Decolorization / oxidative degradation / oxidative polymerization of pigments and lignin by the culture; settings: for Specific Activity, Culture: reaction pH 7.0, 25° C., without sign = degradation or decolorization, minus = polymerization activity; for specificity of the culture compared with bilirubin oxidase from the genus Myrothecium: Table 3; for reaction of the substrate catalyzed by the culture (in words): neutral conditions
From the text: The decolorization activity on the respective dyes can be evaluated by measuring as the dye, Evans' Blue, Acid Blue 80, Remazol Brilliant Blue R and Acid Violet 17 in the step c) for their absorbance at 600 nm, 600 nm, 600 nm and 550 nm respectively. In addition, regarding the lignin, the oxidative degradation activity on the respective dyes can be evaluated by measuring the absorbance at 450 nm in the step c). The oxidative polymerization activity on the respective dyes can be evaluated by measuring as the dye, Indigo Carmine and Natural Orange 6 in the step c) for their absorbance at 600 nm and 450 nm respectively.
Next, chemical changes of various substrates generated by the action of the culture for the substrate specificity of the culture obtained in (2) of Example 1 was examined by determining a change in the absorbance of the buffer containing each substrate.
As the substrate, commercially available pigments (Evans' Blue, Acid Blue 80, Remazol Brilliant Blue R, Indigo Carmine, Acid Violet 17, Natural Orange) and lignin (trade name: Lignin Alkali, manufactured by Tokyo Kasei) were used.
as §1, §2

[3] = system: culture of Flammulina velutipes strain IFO 30601; assay: Substrate specificity of the culture (phenol oxidase-like activity, Table 1); settings: pH 7.0; determined wavelength per substrate (Table 1)
[4] = biological target: T2, bilirubin oxidase from the strain belonging to the genus Myrothecium (Albifimbria verrucaria, UniProt Q12737); assay: Direct oxidation reaction by bilirubin oxidase (comparison); design: concentration or dose not given beside the values; settings: reaction pH 7.0; 2-chloro 1,4-phenylenediamine = 100
T2 sequence (Q12737 39-572): T1 sequence (Q12737 39-572)
Protocol: (§3) Concretely, 180 μl of 0.89 mM sodium phosphate buffer (pH 7.0) containing […] substrate was pre-incubated in wells of a 96-well microplate [manufactured by Corning, Costor (registered trademark) 3368] at 25° C. for 1 minute. Next, 20 μl of the above-mentioned culture solution was added to the resulting mixture. A change in absorbance at 490 nm, 450 nm or 405 nm was determined for the resulting product, depending on the substrate. Here, 1 U (unit) of the activity regarding the direct oxidative reaction was defined as an amount for increasing the absorbance by 1 per one minute.
(§4) In addition, for the comparison, the substrate specificities at pH 7.0 for laccase from Japanese lacquer and bilirubin oxidase from the strain belonging to the genus Myrothecium were also examined in the same manner.
The relative activity (%) for each substrate is shown in Table 7, in which the measured value for a case where a representative chemical dye 2-chloro 1,4-phenylenediamine was used as a substrate is 100.

[5] = biological target: T3, bilirubin oxidase from the strain of the genus Myrothecium (Albifimbria verrucaria, UniProt Q12737); assay: Oxidative coupling reaction with 4-aminoantipyrine by bilirubin oxidase (comparison); settings: reaction pH 8.0, substrate 2.0 mM
T3 sequence (Q12737 39-572): T1 sequence (Q12737 39-572)
Protocol: (§5) Concretely, 190 μl of 105.3 mM phosphate buffer (pH 7.0) containing 0.4 μmol of a substrate and 4.0 μmol of 4-aminoantipyrine was pre-incubated in wells of a 96-well microplate [manufactured by Corning, Costor (registered trademark) 3368] at 25° C. for 1 minute. Next, 10 μl of the above-mentioned culture solution was added to the resulting mixture, and thereafter, the mixture was incubated for 1 hour. A change in absorbance at 490 nm or 450 nm was determined for the resulting product. One unit (U) of the activity regarding the oxidative coupling reaction was defined as an amount for increasing the absorbance by 1 per one minute.
In addition, for the comparison, the examination was made in the same manner for bilirubin oxidase from the strain of the genus Myrothecium except that the above-mentioned buffer was replaced with 105.3 mM Tris-HCl buffer (pH 8.0).

[6] = system: culture of Flammulina velutipes strain IFO 30601; assay: Direct oxidation reaction by the culture
Protocol: Further, the direct oxidation reaction of the culture obtained in the above-mentioned example was determined by using color development due to oxidative polymerization of a substrate generated by the direct action of the culture of the present invention on the substrate as an index.
As the substrates, there were used diaminophenolic compounds (2-chloro 1,4-phenylenediamine, p-phenylenediamine, 2,5-diaminotoluene, N-phenyl-p-phenylenediamine, toluylene-3,4-diamine, m-phenylenediamine), aminophenolic compounds (o-aminophenol, m-aminophenol, 5-amino-o-cresol, p-aminophenol, p-methylaminophenol), and phenolic compounds (2,6-dimethoxyphenol, catechol, resorcinol, hydroquinone, pyrogallol, gallic acid, propyl gallate, 1-naphthol, […], 2,3,4-trihydroxybenzophenone, 2,3,4,4-tetrahydroxybenzophenone). As to a substrate hardly soluble in water, there was used one obtained by dissolving the substrate in a small amount of dimethyl sulfoxide and diluting the resulting solution with deionized distilled water to a desired concentration. In Table 6, %” indicates volume/volume %.
as §3

[7] = system: culture of Flammulina velutipes strain IFO 30601; assay: Oxidative coupling reaction with 4-aminoantipyrine by the culture; settings: reaction pH 7.0, 25° C., substrate 2.0 mM
Protocol: Next, the oxidative coupling reaction of the culture obtained in (2) in Example 1 mentioned above was determined by using color development as an index by the oxidative condensation of the substrate (hydrogen donor) with 4-aminoantipyrine, catalyzed by the culture of the present invention.
As the hydrogen donors, there were used phenolic compounds (phenol, 2-methoxyphenol, 2,6-dimethoxyphenol, catechol, resorcinol, hydroquinone, pyrogallol, gallic acid, propyl gallate, 1-naphthol, catechin), aminophenolic compounds (o-aminophenol, m-aminophenol, p-aminophenol), diaminophenolic compounds (o-phenylenediamine, m-phenylenediamine, p-phenylenediamine), and heterocyclic compounds (5-hydroxyindole, 2,6-diaminopyridine).
The above-mentioned culture solution was added to a reaction system containing 4-aminoantipyrine and an optional hydrogen donor. Thereafter, the activity of the culture of the present invention was assayed by determining a change in absorbance at 490 nm for the phenolic compound, the diaminophenolic compound and the heterocyclic compound, or determining a change in absorbance at 450 nm for the aminophenolic compound. As to a substrate hardly soluble in water, there was used one obtained by dissolving the substrate in a small amount of dimethyl sulfoxide and diluting the resulting solution with deionized water to a desired concentration. In Table 4, DMSO is an abbreviation for dimethyl sulfoxide.
as §5

[8] = system: laccase from Japanese lacquer; assay: Direct oxidation reaction by laccase (comparison); settings: reaction pH 7.0; 2-chloro 1,4-phenylenediamine = 100
Protocol: Next, 20 μl of the above-mentioned culture solution was added to the resulting mixture. A change in absorbance at 490 nm, 450 nm or 405 nm was determined for the resulting product, depending on the substrate. Here, 1 U (unit) of the activity regarding the direct oxidative reaction was defined as an amount for increasing the absorbance by 1 per one minute.
as §4

[9] = pH 7.0, relative activities of Table 7

Cc1cc(C)c(S(=O)(=O)[O-])c(C)c1Nc1ccc(Nc2c(C)cc(C)c(S(=O)(=O)[O-])c2C)c2c1C(=O)c1ccccc1C2=O.[Na+].[Na+] [Acid Blue 80]
Specific Activity, Bilirubin Oxidase from Strain Belonging to Genus Myrothecium [1]: 0.39 U/mg Protein | Specific Activity, Culture [2]: 0.30 U/mg Protein

CCN(CC)c1ccc(C(=C2C=CC(=[N+](CC)Cc3cccc(S(=O)(=O)[O-])c3)C=C2)c2ccc(N(CC)Cc3cccc(S(=O)(=O)[O-])c3)cc2)cc1.[Na+] [Acid Violet 17]
Specific Activity, Bilirubin Oxidase from Strain Belonging to Genus Myrothecium [1]: −0.40 U/mg Protein | specificity of the culture compared with bilirubin oxidase from the genus Myrothecium [2]: significantly differs | reaction of the substrate catalyzed by the culture (in words) [2]: oxidative decolorization reaction | Specific Activity, Culture [2]: 0.12 U/mg Protein

Cc1cc(-c2ccc(/N=N/c3ccc4c(S(=O)(=O)[O-])cc(S(=O)(=O)[O-])c(N)c4c3O)c(C)c2)ccc1/N=N/c1ccc2c(S(=O)(=O)[O-])cc(S(=O)(=O)[O-])c(N)c2c1O.[Na+].[Na+].[Na+].[Na+] [Evans' Blue]
Specific Activity, Bilirubin Oxidase from Strain Belonging to Genus Myrothecium [1]: 1.22 U/mg Protein | Specific Activity, Culture [2]: 0.32 U/mg Protein

O=C1/C(=C2\Nc3ccc(S(=O)(=O)[O-])cc3C2=O)Nc2ccc(S(=O)(=O)[O-])cc21.[Na+].[Na+] [Indigo Carmine]
Specific Activity, Bilirubin Oxidase from Strain Belonging to Genus Myrothecium [1]: 0.46 U/mg Protein | specificity of the culture compared with bilirubin oxidase from the genus Myrothecium [2]: significantly differs | reaction of the substrate catalyzed by the culture (in words) [2]: oxidative polymerization reaction | Specific Activity, Culture [2]: −0.22 U/mg Protein

O=C1C=C(O)C(=O)c2ccccc21 [Natural Orange 6]
Specific Activity, Bilirubin Oxidase from Strain Belonging to Genus Myrothecium [1]: −0.11 U/mg Protein | reaction of the substrate catalyzed by the culture (in words) [2]: oxidative polymerization reaction | Specific Activity, Culture [2]: −0.18 U/mg Protein

Nc1c(S(=O)(=O)[O-])cc(Nc2cccc(S(=O)(=O)CCOS(=O)(=O)[O-])c2)c2c1C(=O)c1ccccc1C2=O.[Na+].[Na+] [Remazol Brilliant Blue R]
Specific Activity, Bilirubin Oxidase from Strain Belonging to Genus Myrothecium [1]: −0.18 U/mg Protein | specificity of the culture compared with bilirubin oxidase from the genus Myrothecium [2]: significantly differs | reaction of the substrate catalyzed by the culture (in words) [2]: strongly catalyzed | Specific Activity, Culture [2]: 0.97 U/mg Protein

Nc1ccc(N)cc1 [p-Phenylenediamine]
U (activity of the culture on the substrate) [3]: 0.101 U | Relative Activity, Bilirubin Oxidase from Strain Belonging to Genus Myrothecium (direct oxidation) [4]: 82% | Specific Activity, Bilirubin Oxidase from Strain Belonging to Genus Myrothecium (oxidative coupling with 4-aminoantipyrine) [5]: 11.1 U/mg Protein | activity of the culture for the substrate in words, direct oxidation reaction ([6]; pH 7.0): especially high activity | activity of the culture compared with bilirubin oxidase from the genus Myrothecium, direct oxidation [6, 9]: higher activity | activity of the culture compared with laccase from Japanese lacquer, direct oxidation [6, 9]: higher activity | Relative Activity, Culture (direct oxidation) ([6]; reaction pH 7.0, 2-chloro 1,4-phenylenediamine = 100): 388% | Specific Activity, Culture (oxidative coupling with 4-aminoantipyrine) [7]: 20.9 U/mg Protein | Relative Activity, Laccase from Japanese Lacquer (direct oxidation) [8]: 142%
